Data published in patent US9597364B2, “Treatment of withdrawal symptoms to aid in nicotine use cessation with Passiflora incarnata” (Campbell University, priority 2011, dated 2017).

How the values were obtained:
[1] = system: Male Wistar rats; details: 0.4 mg/kg nicotine s.c.
Method: Male Wistar rats (Charles River, Raleigh, N.C.) were provided with food and water ad libitum on a 12 hour light/dark cycle for 2-3 weeks before beginning any treatments. For all experiments, rats were approximately 45-65 days old and weighed between 148 and 195 g at the beginning of an experiment. Injections of nicotine or its vehicle (water) were subcutaneous (s.c.) administered at 0.4 mg/kg nicotine (Sigma Aldrich, St. Louis, Mo.) and 2 ml/kg. Injections of aqueous passion flower extract (Nature's Answer, Hauppage, N.Y.) or vehicle (1:1 glycerin:water) were intraperitoneal (i.p.) administered at 800 mg/kg and 0.16 ml/kg.
Drug-naive rats were placed individually in an open field for determination of spontaneous activity using the Limelight video tracking system (ActiMetrics, Wilmette, Ill.). Each rat was monitored in the open field for 30 minutes to determine the time course of habituation. Immediately afterward, each rat was injected with vehicle that was subsequently used for nicotine injection at 2 ml/kg and the rats were monitored for 50 minutes. Then each rat was removed from the chamber briefly to be injected s.c. with 0.4 mg/kg nicotine and monitored for another 90 minutes.
Mean velocity (in cm/s) over each 1 sec period was extracted using the LimeLight software and that data was used to calculate the average and SEM of the mean velocities for each 5 minute interval for each treatment group. Figures show the time at the end of the 5 minute period (e.g., 10 minutes is the 5-10 minute interval). In the preliminary assay of nicotine versus vehicle, there were 6 rats and in the chronic nicotine study there were 8-10 rats in each group.

[2] = system: Male Wistar rats; experiment: Effect of passion flower extract on nicotine sensitization (expression of motor sensitization, open field); type: in vivo, rat; details: 0.4 mg/kg s.c. nicotine days 1-4, challenge day 5
Method: To produce nicotine sensitization, rats were injected once/day for 4 consecutive days with either nicotine or vehicle. On day 5, known as the test day, rats were divided into four groups; half of those that had received vehicle on days 1-4 were pre-treated with passion flower extract (vehicle-passion flower group) and the other half with vehicle (vehicle-vehicle group). Analogously, half of the rats that received nicotine on days 1-4 received a pre-treatment of i.p. 1:1 water:glycerin (nicotine-vehicle group) on day 5, while the other half was given a pre-treatment of i.p. passion flower extract (nicotine-passionflower group). Each rat was monitored in the open field for 100 consecutive minutes, starting approximately 23 hours after the day 4 nicotine treatment. Before any injections on day 5, rats were placed in the activity chambers until an injection of passion flower extract or vehicle at 25 minutes, then monitored for another 25 minutes, at which point all rats received an injection of nicotine and were monitored for 50 additional minutes.

With CN1CCCC1c1cccnc1 (stereo not shown) [nicotine] the “time of peak activity after injection” value [1] was 5 to 15 min, the “activity compared with vehicle treatment” value ([1]; intervals between 10 and 35 minutes except 15-20 minutes, 2-way ANOVA, Bonferroni p<0.05) was “significantly different from vehicle treatment” and the “spontaneous activity (velocity) during the 10-35 minute intervals, average” value ([1]; vehicle average 0.8±0.1 cm/s) was 1.9±0.2 cm/s. For the same compound, the “activity of nicotine-sensitized group (nicotine-vehicle) after challenge dose of nicotine, compared with vehicle-vehicle group” value [2] was “significantly greater activity than the vehicle-vehicle group”.
